Source: EP4610269A1, “UROKINASE PLASMINOGEN ACTIVATOR SURFACE RECEPTOR (UPAR) LIGANDS FOR DIAGNOSTIC OR THERAPEUTIC USE” (3B Pharmaceuticals GmbH, priority 2024, dated 2025)
Like-named read-outs stand apart in the source and are kept apart here. Where a SMILES comes first, the peptide text is derived from it. Bridges are numbered along the chain shown (N, C = ends). [ ]: non-standard residue; d: D form. The star is where a group is joined. DOTA(In) = O=C1CN2CCN3CCN(CC(=O)*)CCN(CC2)CC(=O)[O][In]([O]1)[O]C(=O)C3; DOTA = O=C(O)CN1CCN(CC(=O)O)CCN(CC(=O)*)CCN(CC(=O)O)CC1; Lys(Me3) = C[N+](C)(C)CCCC[C@H](N)C(=O)O; Phe(3-Cl) = N[C@@H](Cc1cccc(Cl)c1)C(=O)O; Hyp = O=C(O)[C@@H]1C[C@@H](O)CN1; hPhe = N[C@@H](CCc1ccccc1)C(=O)O; Pentanoyl(4-Me) = CC(C)CCC(=O)*; Cit = NC(=O)NCCC[C@H](N)C(=O)O; Nva = CCC[C@H](N)C(=O)O; Pentanoyl = CCCCC(=O)*

Key:
[1] = target: T1, uPAR-expressing HEC-265 human endometrial adenocarcinoma cells (Homo sapiens, UniProt Q03405); test: Competitive FACS binding assay; conditions: pIC50 category of FACS binding
T1 construct: Cell surface uPAR-expressing HEC-265 human endometrial adenocarcinoma cells; host or cells: HEC-265
T1 sequence (Q03405 23-335): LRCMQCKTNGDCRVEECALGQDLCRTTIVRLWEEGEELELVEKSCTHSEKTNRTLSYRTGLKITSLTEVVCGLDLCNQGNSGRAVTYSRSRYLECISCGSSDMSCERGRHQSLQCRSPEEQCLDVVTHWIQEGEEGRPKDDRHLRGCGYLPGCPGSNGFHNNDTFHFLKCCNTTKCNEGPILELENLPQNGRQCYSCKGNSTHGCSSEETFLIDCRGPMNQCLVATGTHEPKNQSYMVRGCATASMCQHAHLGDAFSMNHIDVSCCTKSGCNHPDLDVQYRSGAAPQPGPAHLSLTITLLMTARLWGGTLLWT
Procedure, shortened: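 HEC-265 cells incubated 1 h at 4 °C with 10 nM biotinylated uPAR peptide tracer plus increasing test compound, then stained with APC-streptavidin on ice. Median APC fluorescence by flow cytometry; 4PL fit gives pIC50.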

[2] = target: T2, human uPAR (uPAR-Fc) (Homo sapiens, UniProt Q03405); test: Surface plasmon resonance (SPR) assay, single cycle kinetics; assay type: binding; conditions: pKD category for uPAR SPR activity assay, uPAR-Fc on Protein A-Chip, 25°C; for Kd: read-out: pKD CAT (converted)
T2 construct: comprising amino acids Leu23-Arg303 according to UniProt entry Q03405.1; purchased R&D Systems 10378-UK-100
T2 sequence (Q03405 23-303): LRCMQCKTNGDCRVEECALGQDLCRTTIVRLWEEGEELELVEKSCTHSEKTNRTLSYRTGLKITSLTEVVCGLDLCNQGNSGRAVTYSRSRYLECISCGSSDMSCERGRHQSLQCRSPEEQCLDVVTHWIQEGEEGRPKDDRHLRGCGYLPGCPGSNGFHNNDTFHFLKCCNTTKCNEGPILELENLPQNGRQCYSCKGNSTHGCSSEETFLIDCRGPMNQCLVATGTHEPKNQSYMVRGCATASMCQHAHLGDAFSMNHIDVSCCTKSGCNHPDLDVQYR
Procedure, shortened: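 uPAR-Fc (Leu23-Arg303 extracellular domains, human IgG1 Fc) captured on Protein A chip to ~2000 RU; single-cycle kinetics at 25°C in HEPES running buffer pH 7.4 with 0.1% DMSO. KD from double-referenced sensorgrams fitted to 1:1 Langmuir model, reported as pKD.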

Compound	IC50 [1] [nM]	Kd ([2]; single cycle kinetics) [nM]	Kd [2] [nM]	pIC50 CAT [1]	pKD CAT [2]
CCCCC(=O)N[C@H]1CSSC[C@@H](C(N)=O)NC(=O)[C@H](CCC)NC(=O)[C@H]([C@@H](C)CC)NC(=O)[C@@H](Cc2ccc(O)cc2)NC(=O)[C@@H]2CCCN2C(=O)[C@H](Cc2ccccc2)NC(=O)[C@H](Cc2ccc(O)cc2)NC(=O)[C@H](CCC(N)=O)NC(=O)[C@H](CCCNC(=N)N)NC1=O [UPAR-465, Pent-[Cys-Arg-Gln-Tyr-Phe-Pro-tyr-Ile-Nva-Cys]-NH2] (Pentanoyl-CRQYFP[dY]I[Nva]C-NH2; disulfide 1-10)	≤ 10	< 1.58			
CC[C@H](C)[C@@H]1NC(=O)[C@@H](C)NC(=O)[C@@H]2CCCN2C(=O)[C@H](Cc2cccc(Cl)c2)NC(=O)[C@H](Cc2ccc(O)cc2)NC(=O)[C@H](CCC(N)=O)NC(=O)[C@H](CCCNC(N)=O)NC(=O)[C@@H](NC(=O)CCC(C)C)CSSC[C@@H](C(N)=O)NC(=O)[C@H](CC(C)C)NC1=O [UPAR-227, iHex-[Cys-Cit-Gln-Tyr-Mcf-Pro-ala-Ile-Leu-Cys]-NH2] ({Pentanoyl(4-Me)}-C[Cit]QY[Phe(3-Cl)]P[dA]ILC-NH2; disulfide 1-10)	≤ 10		< 1.58		
Pent-[Cys-Cit-Lys(InDOTA)-Tyr-Phe-Pro-Hyp-Ile-Nva-Cys]-NH2 (Pentanoyl-C[Cit]K(DOTA(In))YFP[Hyp]I[Nva]C-NH2; disulfide 1-10; not fully specified; also: In(III) complexed by DOTA) [UPAR-182]				A (pIC50 values ≥8.0)	A (pKD values ≥ 8.8)
CCCCC(=O)N[C@H]1CSSC[C@@H](C(N)=O)NC(=O)[C@H](CCC)NC(=O)[C@H]([C@@H](C)CC)NC(=O)[C@@H]2C[C@@H](O)CN2C(=O)[C@@H]2CCCN2C(=O)[C@H](Cc2ccccc2)NC(=O)[C@H](Cc2ccc(O)cc2)NC(=O)[C@H](CCCCNC(=O)CN2CCN(CC(=O)O)CCN(CC(=O)O)CCN(CC(=O)O)CC2)NC(=O)[C@H](CCCC[N+](C)(C)C)NC1=O [UPAR-153, Pent-[Cys-KMe3-Lys(DOTA)-Tyr-Phe-Pro-Hyp-Ile-Nva-Cys]-NH2] (Pentanoyl-C[Lys(Me3)]K(DOTA)YFP[Hyp]I[Nva]C-NH2; disulfide 1-10)	≤ 10		< 1.58		
Pent-[Cys-Cit-Lys(LuDOTA)-Tyr-Egm-Pro-Hyp-Ile-Nva-Cys]-NH2 [UPAR-254]				A (pIC50 values ≥8.0)	A (pKD values ≥ 8.8)
CC[C@H](C)[C@@H]1NC(=O)[C@@H](C)NC(=O)[C@@H]2CCCN2C(=O)[C@H](CCc2ccccc2)NC(=O)[C@H](Cc2ccc(O)cc2)NC(=O)[C@H](CCC(N)=O)NC(=O)[C@H](CCCNC(N)=O)NC(=O)[C@@H](NC(=O)CCC(C)C)CSSC[C@@H](C(N)=O)NC(=O)[C@H](CC(C)C)NC1=O [UPAR-180, iHex-[Cys-Cit-Gln-Tyr-Hfe-Pro-ala-Ile-Leu-Cys]-NH2] ({Pentanoyl(4-Me)}-C[Cit]QY[hPhe]P[dA]ILC-NH2; disulfide 1-10)	≥ 126		> 100		
CCCCC(=O)N[C@H]1CSSC[C@@H](C(N)=O)NC(=O)[C@H](CCC)NC(=O)[C@H]([C@@H](C)CC)NC(=O)[C@@H]2C[C@@H](O)CN2C(=O)[C@@H]2CCCN2C(=O)[C@H](Cc2ccccc2)NC(=O)[C@H](Cc2ccc(O)cc2)NC(=O)[C@H](CCC(N)=O)NC(=O)CNC1=O [UPAR-236, Pent-[Cys-Gly-Gln-Tyr-Phe-Pro-Hyp-Ile-Nva-Cys]-NH2] (Pentanoyl-CGQYFP[Hyp]I[Nva]C-NH2; disulfide 1-10)	≤ 10		< 1.58		
CCCCC(=O)N[C@H]1CSSC[C@@H](C(N)=O)NC(=O)[C@H](CCC)NC(=O)[C@H]([C@@H](C)CC)NC(=O)[C@H](CC(C)C)NC(=O)[C@@H]2CCCN2C(=O)[C@H](Cc2ccccc2)NC(=O)[C@H](Cc2ccc(O)cc2)NC(=O)[C@H](CCC(N)=O)NC(=O)[C@H](CCCNC(=N)N)NC1=O [UPAR-281, Pent-[Cys-Arg-Gln-Tyr-Phe-Pro-Leu-Ile-Nva-Cys]-NH2] (Pentanoyl-CRQYFPLI[Nva]C-NH2; disulfide 1-10)	≤ 10		< 1.58		
CCCCC(=O)N[C@H]1CSSC[C@@H](C(=O)NCC(N)=O)NC(=O)[C@H](CCC)NC(=O)[C@H]([C@@H](C)CC)NC(=O)[C@@H]2C[C@@H](O)CN2C(=O)[C@@H]2CCCN2C(=O)[C@H](Cc2ccccc2)NC(=O)[C@H](Cc2ccc(O)cc2)NC(=O)[C@H](CCC(N)=O)NC(=O)[C@H](CCCNC(N)=O)NC1=O [UPAR-206, Pent-[Cys-Cit-Gln-Tyr-Phe-Pro-Hyp-Ile-Nva-Cys]-Gly-NH2] (Pentanoyl-C[Cit]QYFP[Hyp]I[Nva]CG-NH2; disulfide 1-10)	12.6 to 31.6		1.58 to 10		
